Reference: patent US20250268903A1, “RXFP1 AGONISTS” (BRISTOL-MYERS SQUIBB COMPANY, priority 2021, published 2025)

Target: T1, human RXFP1 (Homo sapiens, UniProt Q9HBX9)
T1 construct: expressed in transfected cells
T1 sequence (Q9HBX9 1-757): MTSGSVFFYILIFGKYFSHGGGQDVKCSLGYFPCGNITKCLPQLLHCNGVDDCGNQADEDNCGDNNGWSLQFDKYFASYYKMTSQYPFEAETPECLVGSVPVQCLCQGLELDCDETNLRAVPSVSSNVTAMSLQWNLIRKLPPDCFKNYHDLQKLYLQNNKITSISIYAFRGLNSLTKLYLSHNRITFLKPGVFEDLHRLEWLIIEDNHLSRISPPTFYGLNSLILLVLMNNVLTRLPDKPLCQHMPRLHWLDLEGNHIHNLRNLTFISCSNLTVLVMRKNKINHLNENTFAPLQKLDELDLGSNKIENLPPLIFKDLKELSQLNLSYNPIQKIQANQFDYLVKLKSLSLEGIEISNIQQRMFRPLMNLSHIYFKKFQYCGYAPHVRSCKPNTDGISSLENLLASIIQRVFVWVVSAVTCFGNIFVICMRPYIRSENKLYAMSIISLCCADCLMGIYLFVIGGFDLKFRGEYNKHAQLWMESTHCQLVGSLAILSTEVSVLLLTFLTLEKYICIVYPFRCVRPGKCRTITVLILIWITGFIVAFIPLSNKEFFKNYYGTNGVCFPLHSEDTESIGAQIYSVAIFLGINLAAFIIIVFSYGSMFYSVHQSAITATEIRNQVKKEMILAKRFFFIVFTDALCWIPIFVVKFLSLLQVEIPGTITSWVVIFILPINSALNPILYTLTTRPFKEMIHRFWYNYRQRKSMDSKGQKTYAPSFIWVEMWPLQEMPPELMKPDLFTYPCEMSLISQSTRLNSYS
Assay: hRXFP1 HEK293 cAMP assay (HTRF)
Assay type: cell-based
Settings: HEK293 cells stably expressing human RXFP1, 30 min at room temperature
Summary of the method: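 HEK293 cells stably expressing human RXFP1 (1500 cells/well) in HBSS/20 mM HEPES/0.05% BSA/0.5 mM IBMX. Compounds were tested at 0.010 nM–50 μM final (2% DMSO) for 30 min at room temperature. cAMP was measured by HTRF and values derived by 4-parameter logistic fit.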

Row | Compound | EC50 [nM]
1 | COC(=O)/C=C\c1ccc(OC)c(C(=O)N[C@H]2[C@@H](C(=O)Nc3ccc(F)c(C(F)(F)F)c3)[C@H]3CC[C@@H]2/C3=C\C(F)(F)F)c1 [Example 304, methyl (2Z)-3-(3-{[(1R,2R,3S,4R,7Z)-3-{[4-fluoro-3-(trifluoromethyl)phenyl]carbamoyl}-7-(2,2,2-trifluoroethylidene)bicyclo[2.2.1]heptan-2-yl]carbamoyl}-4-methoxyphenyl) prop-2-enoate] | 597
2 | CCOC(=O)/C(C)=C/c1ccc(OC)c(C(=O)N[C@H]2[C@@H](C(=O)Nc3ccc(F)c(C(F)(F)F)c3)[C@H]3CC[C@@H]2/C3=C\C(F)(F)F)c1 [Example 305, ethyl (2E)-3-(3-{[(1R,2R,3S,4R,7Z)-3-{[4-fluoro-3-(trifluoromethyl)phenyl]carbamoyl}-7-(2,2,2-trifluoroethylidene)bicyclo[2.2.1]heptan-2-yl]carbamoyl}-4-methoxyphenyl)-2-methylprop-2-enoate] | 744
3 | COc1ccc(/C=C/C(=O)N2CCOCC2)cc1C(=O)N[C@H]1[C@@H](C(=O)Nc2ccc(F)c(C(F)(F)F)c2)[C@H]2CC[C@@H]1/C2=C\C1CC1 [Example 306, (1R,2S,3R,4R,7Z)-7-(cyclopropyl-methylidene)-N-[4-fluoro-3-(trifluoromethyl)phenyl]-3-{2-methoxy-5-[(1E)-3-(morpholin-4-yl)-3-oxoprop-1-en-1-yl]benzamido} bicyclo[2.2.1] heptane-2-carboxamide] | 5.26
4 | COc1ccc(/C=C/C(=O)N2CCO[C@@H](CO)C2)cc1C(=O)N[C@H]1[C@@H](C(=O)Nc2ccc(F)c(C(F)(F)F)c2)[C@H]2CC[C@@H]1/C2=C\C1CC1 [Example 307, (1R,2S,3R,4R,7Z)-7-(cyclopropyl-methylidene)-N-[4-fluoro-3-(trifluoromethyl)phenyl]-3-{5-[(1E)-3-[(2R)-2-(hydroxymethyl)morpholin-4-yl]-3-oxoprop-1-en-1-yl]-2-methoxybenzamido} bicyclo[2.2.1]heptane-2-carboxamide] | 18.5

Continued, values first:

Row | EC50 [nM] | Compound
5 | 13.7 | COc1ccc(/C=C/C(=O)N2CC3CCC(C2)O3)cc1C(=O)N[C@H]1[C@@H](C(=O)Nc2ccc(F)c(C(F)(F)F)c2)[C@H]2CC[C@@H]1/C2=C\C1CC1 [Example 308, (1R,2S,3R,4R,7Z)-7-(cyclopropylmethylidene)-N-[4-fluoro-3-(trifluoromethyl)phenyl]-3-{2-methoxy-5-[(1E)-3-{8-oxa-3-azabicyclo[3.2.1]octan-3-yl}-3-oxoprop-1-en-1-yl]benzamido} bicyclo[2.2.1] heptane-2-carboxamide]
6 | 17.1 | COc1ccc(/C=C/C(=O)N2CC3(CC(O)C3)C2)cc1C(=O)N[C@H]1[C@@H](C(=O)Nc2ccc(F)c(C(F)(F)F)c2)[C@H]2CC[C@@H]1/C2=C\C1CC1 [Example 309, (1R,2S,3R,4R,7Z)-7-(cyclopropylmethylidene)-N-[4-fluoro-3-(trifluoromethyl)phenyl]-3-{5-[(1E)-3-{6-hydroxy-2-azaspiro[3.3]heptan-2-yl}-3-oxoprop-1-en-1-yl]-2-methoxybenzamido} bicyclo[2.2.1]heptane-2-carboxamide]
7 | 87 | COc1ccc(/C=C/C(=O)N2CCO[C@@H](CO)C2)cc1C(=O)N[C@H]1[C@@H](C(=O)Nc2ccc(F)c(C(F)(F)F)c2)[C@H]2CC[C@@H]1/C2=C\C(F)(F)F [Example 310]
8 | 90.9 | COc1ccc(/C=C/C(=O)N2CC3CCC(C2)O3)cc1C(=O)N[C@H]1[C@@H](C(=O)Nc2ccc(F)c(C(F)(F)F)c2)[C@H]2CC[C@@H]1/C2=C\C(F)(F)F [Example 311, (1R,2S,3R,4R,7Z)-N-[4-fluoro-3-(trifluoromethyl)phenyl]-3-{2-methoxy-5-[(1E)-3-{8-oxa-3-azabicyclo[3.2.1]octan-3-yl}-3-oxoprop-1-en-1-yl]benzamido}-7-(2,2,2-trifluoroethylidene) bicyclo[2.2.1]heptane-2-carboxamide]
